Source: patent US20110195433A1 (priority 2007, published 2011)
“Also recorded” adds a separate entry of the source. Where a name gives a salt, the structure may show the parent alone.

How the values were obtained:
animals = test: precipitated withdrawal jumping in animals; assay type: in vivo; conditions: compared with naloxone
mouse DOR [1] = target: T1, mouse DOR (Mus musculus, UniProt P32300)
mouse DOR [2] = target: T1, mouse DOR; test: basal [35S]GTPγS binding in DOR cell membranes with or without agonist pretreatment; assay type: biochemical; set-up: expressed in transfected cells; membranes
human MOR [3] = target: T2, human MOR (Homo sapiens, UniProt P35372)
human KOR = target: T3, human KOR (Homo sapiens, UniProt P41145); test: biochemical; conditions: for Emax: read-out: Emax of decrease of basal GTPγS binding
T3 construct: expressed in transfected cells; membranes

human MOR [4] = target: T2, human MOR; assay type: biochemical; set-up: expressed in transfected cells; membranes

T2 sequence (P35372 whole entry): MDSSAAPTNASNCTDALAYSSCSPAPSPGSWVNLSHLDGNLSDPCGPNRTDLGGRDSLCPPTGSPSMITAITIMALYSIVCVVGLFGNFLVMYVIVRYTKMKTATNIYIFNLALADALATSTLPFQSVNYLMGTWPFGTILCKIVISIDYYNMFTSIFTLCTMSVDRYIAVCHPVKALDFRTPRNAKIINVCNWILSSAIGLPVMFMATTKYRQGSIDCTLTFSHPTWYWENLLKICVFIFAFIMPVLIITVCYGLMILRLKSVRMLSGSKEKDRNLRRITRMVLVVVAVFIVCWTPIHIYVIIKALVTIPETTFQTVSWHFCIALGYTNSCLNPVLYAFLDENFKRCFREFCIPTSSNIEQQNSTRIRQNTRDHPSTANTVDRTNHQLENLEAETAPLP
T1 sequence (P32300 whole entry): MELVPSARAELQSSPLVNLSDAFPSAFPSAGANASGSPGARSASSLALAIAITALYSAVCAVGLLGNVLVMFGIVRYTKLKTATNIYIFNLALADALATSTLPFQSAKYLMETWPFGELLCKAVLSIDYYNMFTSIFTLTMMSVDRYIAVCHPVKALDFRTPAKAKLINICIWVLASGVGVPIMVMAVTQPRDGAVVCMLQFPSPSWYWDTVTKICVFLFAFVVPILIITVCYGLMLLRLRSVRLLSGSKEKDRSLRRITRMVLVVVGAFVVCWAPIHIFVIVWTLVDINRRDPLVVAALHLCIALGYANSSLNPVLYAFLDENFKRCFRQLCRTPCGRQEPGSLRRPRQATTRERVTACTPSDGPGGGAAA
T3 sequence (P41145 whole entry): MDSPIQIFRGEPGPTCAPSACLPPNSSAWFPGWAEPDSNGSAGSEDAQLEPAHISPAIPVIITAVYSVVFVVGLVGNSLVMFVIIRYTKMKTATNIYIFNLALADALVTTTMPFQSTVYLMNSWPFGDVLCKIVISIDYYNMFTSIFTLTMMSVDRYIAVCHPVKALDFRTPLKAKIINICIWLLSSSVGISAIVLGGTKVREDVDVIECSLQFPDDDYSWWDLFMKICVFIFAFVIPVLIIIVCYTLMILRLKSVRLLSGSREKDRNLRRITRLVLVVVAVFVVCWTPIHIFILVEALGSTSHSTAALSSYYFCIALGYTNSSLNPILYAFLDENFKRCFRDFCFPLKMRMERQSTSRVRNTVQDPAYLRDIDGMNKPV

## Oc1ccc2c3c1O[C@H]1[C@H](O)CC[C@@]4(O)[C@@H](C2)N(CC2CC2)CC[C@]314 [6β-naltrexol]
animals
  precipitated withdrawal jumping: less withdrawal jumping than naloxone
Mouse DOR [1]; 30 nM DPDPE, DOR membranes
  antagonistic property against agonist-stimulated [35S]GTPγS binding: full antagonists
Mouse DOR [2]; DPDPE-pretreated DOR membranes
  inhibition of the inverse agonist effect of naloxone: inhibited
Mouse DOR [2]; after DPDPE or morphine pretreatment
  pharmacological property at DOR: neutral antagonist property; also recorded: remained neutral

## C[C@@H](NC(=O)[C@@H](N)Cc1ccc(O)cc1)C(=O)NCC(=O)N(C)[C@@H](Cc1ccccc1)C(=O)NCCO [DAMGO, [D-Ala2,N-Me-Phe4,Gly5-ol]-enkephalin]
Human MOR [3]
  change of agonist Emax value after pretreatment: decreased

## N,N-diallyl-Tyr-Aib-Aib-Phe-Leu-OH [ICI 174,864]
Mouse DOR [2]; DPDPE pre-exposure, DOR
  change of inverse agonist effects after pretreatment: decreased
Mouse DOR [2]; morphine pretreatment, DOR
  change of inverse agonist Emax after pretreatment: without affecting
  shift of inverse agonist dose-response curve after pretreatment: shifted the dose-response curve for ICI 174,864 to the left

## N=C(N)Nc1ccc2[nH]c3c(c2c1)CC1(O)C2Cc4ccc(O)c5c4C1(CCN2CC1CC1)C3O5 (stereo not drawn) [GNTI, 5′-guanidinyl-17-(cyclopropylmethyl)-6,7-dehydro-4,5α-epoxy-3,14-dihydroxy-6,7-2′3′-indolomorphinan dihydrochloride]
Human KOR
  EC50 of decrease of basal GTPγS binding: femtomolar range
  change of inverse agonist effects after pretreatment: increased
  pharmacological property at KOR: inverse agonists
  Emax: ~10%

## [D-Pen2,D-Pen5]-enkephalin [DPDPE]
Mouse DOR [1]
  change of agonist Emax value after pretreatment: decreased

## O=C1C(=Cc2ccccc2)C[C@@]2(O)[C@H]3Cc4ccc(O)c5c4[C@@]2(CCN3CC2CC2)[C@H]1O5 [BNTX, 7-benzylidenenaltrexone]
Human MOR [4]
  change of inverse agonist effects after pretreatment: increased
  shift of inverse agonist dose-response curve after pretreatment: shifted the dose-response curve of BNTX to the left

## Oc1ccc2c3c1O[C@H]1c4[nH]c5c(c4C[C@@]4(O)[C@@H](C2)N(CC2CC2)CC[C@]314)C[C@@]1(O)[C@H]2Cc3ccc(O)c4c3[C@@]1(CCN2CC1CC1)[C@H]5O4 [nor-BNI, nor-binaltorphimine]
Human KOR
  change of inverse agonist effects after pretreatment: increased
  pharmacological property at KOR: inverse agonists
  Emax: ~10%
